Source: ChEMBL document CHEMBL1155440, “1-(5-carboxyindol-1-yl)propan-2-one inhibitors of human cytosolic phospholipase A(2)alpha with reduced lipophilicity: synthesis, biological activity, metabolic stability, solubility, bioavailability, and topical in vivo activity” (J Med Chem, 2010)
The source made the active and inactive calls. No cut-off for these calls is given here.

Legend:
[1] = Partition coefficient, log P at 5 mM by reverse phase HPLC analysis; format: physicochemical; conditions: octanol/water
[2] = Inhibition of TPA-induced cPLA2alpha in human platelets assessed as inhibition of arachidonic acid production after 60 mins by UV-reverse phase HPLC analysis; conditions: 1 h
[3] = target: T1, 85/88 kDa calcium-independent phospholipase A2 (Rattus norvegicus) (UniProt P97570); assay: Inhibition of Sprague-Dawley rat brain iPLA2 assessed as inhibition of substrate cleavage at 10 uM after 60 mins by HPLC analysis
T1 sequence (whole entry): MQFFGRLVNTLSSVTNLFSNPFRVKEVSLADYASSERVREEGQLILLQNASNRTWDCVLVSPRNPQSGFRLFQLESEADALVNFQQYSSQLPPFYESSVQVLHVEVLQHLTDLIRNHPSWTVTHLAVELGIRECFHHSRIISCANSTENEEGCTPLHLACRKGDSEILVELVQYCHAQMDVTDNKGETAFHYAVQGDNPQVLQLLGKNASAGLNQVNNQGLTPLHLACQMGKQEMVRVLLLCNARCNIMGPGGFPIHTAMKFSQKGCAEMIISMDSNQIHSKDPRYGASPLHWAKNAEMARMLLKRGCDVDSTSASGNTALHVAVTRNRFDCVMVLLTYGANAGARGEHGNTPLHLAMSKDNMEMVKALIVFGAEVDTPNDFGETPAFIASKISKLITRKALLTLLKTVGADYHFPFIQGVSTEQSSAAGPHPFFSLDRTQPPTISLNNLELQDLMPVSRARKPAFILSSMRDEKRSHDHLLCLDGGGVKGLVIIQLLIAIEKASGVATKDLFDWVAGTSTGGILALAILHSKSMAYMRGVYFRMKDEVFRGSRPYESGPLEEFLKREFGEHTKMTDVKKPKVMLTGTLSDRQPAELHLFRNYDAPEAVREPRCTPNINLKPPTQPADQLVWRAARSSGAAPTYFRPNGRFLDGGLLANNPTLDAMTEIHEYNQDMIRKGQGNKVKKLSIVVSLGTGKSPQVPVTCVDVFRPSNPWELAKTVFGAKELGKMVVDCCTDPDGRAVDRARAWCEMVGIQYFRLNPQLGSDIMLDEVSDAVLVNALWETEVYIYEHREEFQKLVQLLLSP

[4] = target: Phospholipase A2, major isoenzyme (Sus scrofa) (UniProt P00592); assay: Inhibition of pig pancreas group 1B sPLA2 assessed as inhibition of POPG cleavage at 10 uM after 30 mins by HPLC analysis
Mus musculus [5] = assay: Antiinflammatory activity in BALB/c mouse assessed as inhibition of benzalkonium chloride-induced ear edema at 0.1 to 1 mg/ear administered topically after 10 mins of benzalkonium chloride challenge measured after 1 hr of induction of dermatitis; format: functional, organism-based
Mus musculus [6] = assay: Antiinflammatory activity in BALB/c mouse assessed as inhibition of benzalkonium chloride-induced ear edema at 0.1 to 1 mg/ear administered topically after 10 mins of benzalkonium chloride challenge measured after 5 hrs of induction of dermatitis; format: functional, organism-based
Mus musculus [7] = assay: Antiinflammatory activity in BALB/c mouse assessed as inhibition of benzalkonium chloride-induced ear edema at 0.1 to 1 mg/ear administered topically after 10 mins of benzalkonium chloride challenge measured after 7 hrs of induction of dermatitis; format: functional, organism-based
Mus musculus [8] = assay: Antiinflammatory activity in BALB/c mouse assessed as inhibition of benzalkonium chloride-induced ear edema at 0.01 mg/ear administered topically after 10 mins of benzalkonium chloride challenge measured after 5 to 7 hrs of induction of dermatitis; format: functional, organism-based
Mus musculus [9] = assay: Antiinflammatory activity in topically dosed BALB/c mouse assessed as inhibition of benzalkonium chloride-induced ear edema administered after 10 mins of benzalkonium chloride challenge measured after 1 to 7 hrs of induction of dermatitis; format: functional, organism-based
Mus musculus [10] = assay: Antiinflammatory activity in BALB/c mouse assessed as inhibition of benzalkonium chloride-induced ear edema at 0.1 mg/ear administered topically after 10 mins of benzalkonium chloride challenge measured after 7 hrs of induction of dermatitis; format: functional
Mus musculus [11] = assay: Antiinflammatory activity in BALB/c mouse assessed as inhibition of benzalkonium chloride-induced ear edema at 0.005 mg/ear administered topically after 10 mins of benzalkonium chloride challenge measured after 7 hrs of induction of dermatitis; format: functional

Chain of Phospholipase A2, major isoenzyme (Sus scrofa) (P00592 23-146 limits assumed): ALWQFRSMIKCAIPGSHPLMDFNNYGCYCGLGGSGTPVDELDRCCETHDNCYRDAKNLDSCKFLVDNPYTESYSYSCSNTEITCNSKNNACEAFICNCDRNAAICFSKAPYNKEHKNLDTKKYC

## CC(C)C(=O)c1cn(CC(=O)COc2ccc(Oc3ccccc3)cc2)c2ccc(C(=O)O)cc12
[1]
  logP at 5000 µM: 3.5
[2]
  IC50: 15 nM
[3]
  inhibition: inactive
[4]
  inhibition: inactive
Mus musculus [5]
  inhibition: Active
Mus musculus [6]
  inhibition: Active
Mus musculus [7]
  inhibition: Active
Mus musculus [8]
  inhibition: inactive
Mus musculus [9]
  inhibition: Dose-dependent effect
Mus musculus [10]
  inhibition (INH): 84%
Mus musculus [11]
  inhibition (INH): 90%
